Values quoted from earlier work as cited in article PMC4291223, “Inhibitors of CLK Protein Kinases Suppress Cell Growth and Induce Apoptosis by Modulating Pre-mRNA Splicing” (PLoS ONE, 2015).

System: CLK1 and CLK4
Set-up: method as in PMID 15010457
Settings: cited from earlier work

Question: With `CCN1/C(=C/C(C)=O)Sc2ccc(OC)cc21` [TG003] as the molecule, how does the CLK selectivity read?
Answer: selectively inhibits CLK1 and CLK4
